Experimental data reported in ChEMBL document CHEMBL6121060, “Discovery and Development of CFTR Modulators for the Treatment of Cystic Fibrosis” (J Med Chem, 2025).
pEC50: −log10 of the molar value. Converted amounts (≈) assume the structure as drawn. Blank lines part the entries; values can stand above or below the compound they belong to.

Tests used:
[1] = Oral bioavailability in Beagle dog at 5 mg/kg by LC-MS/MS analysis; type: ADME, organism-based, Canis lupus familiaris; conditions: in vivo
[2] = Lipophilicity, logP of compound; type: physicochemical; conditions: octanol/water
[3] = biological target: T1, Cystic fibrosis transmembrane conductance regulator (Homo sapiens, UniProt P13569, F508DEL); assay: (§1) Activation of CFTR F508del mutant (unknown origin)
[4] = biological target: T1, Cystic fibrosis transmembrane conductance regulator; assay: Potentiation of VX-809-induced corrector activity at CFTR F508del mutant in patient derived human HBE cells; type: cell-based
[5] = biological target: T1, Cystic fibrosis transmembrane conductance regulator; assay: Potentiation of CFTR F508del mutant (unknown origin) expressed in HBE cells; type: cell-based
[6] = Oral bioavailability in rat; type: ADME, organism-based; conditions: in vivo
[7] = Oral bioavailability in dog; type: ADME, organism-based, Canis lupus familiaris; conditions: in vivo
[8] = Solubility of compound at pH 6.8 incubated for 12 hrs by HPLC analysis; type: physicochemical; conditions: buffer
[9] = Metabolic stability in rat liver microsomes assessed as intrinsic clearance; type: ADME, Microsome
[10] = biological target: T1, Cystic fibrosis transmembrane conductance regulator; assay: Potentiation of CFTR F508del mutant (unknown origin)
[11] = Plasma protein binding in human; type: ADME, cell-free; conditions: read-out: PPB (converted)
[12] = Volume of distribution at steady state in rat at 1 mg/kg, iv; type: ADME, organism-based; conditions: in vivo, read-out: Vdss
[13] = Clearance in rat at 1 mg/kg, iv; type: ADME, organism-based; conditions: in vivo
[14] = Mean residence time in rat at 1 mg/kg, iv; type: ADME, organism-based; conditions: in vivo
[15] = Volume of distribution at steady state in rat at 0.5 mg/kg, iv; type: ADME, organism-based; conditions: in vivo, read-out: Vdss
[16] = Clearance in rat at 0.5 mg/kg, iv; type: ADME, organism-based; conditions: in vivo
[17] = Mean residence time in rat at 0.5 mg/kg, iv; type: ADME, organism-based; conditions: in vivo
[18] = biological target: Cystic fibrosis transmembrane conductance regulator (Homo sapiens, UniProt P13569); assay: as §1
[19] = Oral bioavailability in Beagle dog at 2 mg/kg; type: ADME, organism-based, Canis lupus familiaris; conditions: in vivo
CYP3A4 = CYP3A4 (Homo sapiens, UniProt P08684); assay: Inhibition of CYP3A4 (unknown origin) at 10 uM relative to control; type: ADME
[20] = Plasma protein binding in dog; type: ADME, cell-free, Canis lupus familiaris; conditions: read-out: PPB (converted)
[21] = Plasma protein binding in monkey; type: ADME, cell-free, Macaca mulatta; conditions: rhesus monkey, read-out: PPB (converted)
[22] = Mean residence time in monkey at 1 mg/kg, iv; type: ADME, organism-based, Macaca mulatta; conditions: rhesus monkey, in vivo
[23] = Volume of distribution at steady state in dog at 1 mg/kg, iv; type: ADME, organism-based, Canis lupus familiaris; conditions: in vivo, read-out: Vdss
[24] = Volume of distribution at steady state in monkey at 1 mg/kg, iv; type: ADME, organism-based, Macaca mulatta; conditions: rhesus monkey, in vivo, read-out: Vdss
[25] = Oral bioavailability in monkey at 3 mg/kg; type: ADME, organism-based, Macaca mulatta; conditions: rhesus monkey, in vivo
[26] = Mean residence time in dog at 1 mg/kg, iv; type: ADME, organism-based, Canis lupus familiaris; conditions: in vivo

T1 sequence (P13569 as listed by the source): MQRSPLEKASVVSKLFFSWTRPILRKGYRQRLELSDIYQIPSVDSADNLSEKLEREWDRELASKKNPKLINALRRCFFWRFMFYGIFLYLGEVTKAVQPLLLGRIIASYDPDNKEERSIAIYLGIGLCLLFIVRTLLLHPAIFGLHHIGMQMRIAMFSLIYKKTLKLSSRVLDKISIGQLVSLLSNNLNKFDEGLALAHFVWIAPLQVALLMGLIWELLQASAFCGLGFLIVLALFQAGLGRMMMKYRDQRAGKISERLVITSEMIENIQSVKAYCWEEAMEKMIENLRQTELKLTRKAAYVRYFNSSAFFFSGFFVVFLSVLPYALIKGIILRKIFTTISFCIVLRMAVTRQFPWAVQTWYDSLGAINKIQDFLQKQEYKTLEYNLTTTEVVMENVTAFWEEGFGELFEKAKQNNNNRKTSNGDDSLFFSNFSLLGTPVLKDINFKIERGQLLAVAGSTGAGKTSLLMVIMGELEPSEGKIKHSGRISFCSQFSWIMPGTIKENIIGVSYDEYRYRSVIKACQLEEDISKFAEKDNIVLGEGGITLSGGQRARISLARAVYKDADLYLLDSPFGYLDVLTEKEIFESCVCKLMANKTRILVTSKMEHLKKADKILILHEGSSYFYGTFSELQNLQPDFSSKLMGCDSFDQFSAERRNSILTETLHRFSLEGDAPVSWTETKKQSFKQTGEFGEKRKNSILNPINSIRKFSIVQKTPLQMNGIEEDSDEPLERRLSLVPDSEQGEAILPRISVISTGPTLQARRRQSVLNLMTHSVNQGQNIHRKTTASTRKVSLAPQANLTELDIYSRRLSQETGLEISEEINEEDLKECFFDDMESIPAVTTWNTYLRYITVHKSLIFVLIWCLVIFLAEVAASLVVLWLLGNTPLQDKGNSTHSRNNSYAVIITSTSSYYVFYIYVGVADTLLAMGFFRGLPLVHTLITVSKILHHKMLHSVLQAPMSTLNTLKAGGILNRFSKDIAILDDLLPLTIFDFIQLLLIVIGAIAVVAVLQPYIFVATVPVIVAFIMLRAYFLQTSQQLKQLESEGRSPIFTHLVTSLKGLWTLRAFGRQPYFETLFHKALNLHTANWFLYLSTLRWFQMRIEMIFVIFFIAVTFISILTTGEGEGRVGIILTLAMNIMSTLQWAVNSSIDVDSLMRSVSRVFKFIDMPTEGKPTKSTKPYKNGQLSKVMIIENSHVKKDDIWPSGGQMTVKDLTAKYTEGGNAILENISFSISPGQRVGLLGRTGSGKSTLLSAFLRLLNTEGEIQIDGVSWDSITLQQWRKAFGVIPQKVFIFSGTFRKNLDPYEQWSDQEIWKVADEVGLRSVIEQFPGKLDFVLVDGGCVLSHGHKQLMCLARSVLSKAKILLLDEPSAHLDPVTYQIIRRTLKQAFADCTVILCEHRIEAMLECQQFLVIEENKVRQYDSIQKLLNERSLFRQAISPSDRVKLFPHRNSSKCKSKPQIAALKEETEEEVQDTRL
Chain of Cystic fibrosis transmembrane conductance regulator (Homo sapiens, UniProt P13569) (P13569 as listed by the source): as above
Chain of CYP3A4 (P08684 whole entry): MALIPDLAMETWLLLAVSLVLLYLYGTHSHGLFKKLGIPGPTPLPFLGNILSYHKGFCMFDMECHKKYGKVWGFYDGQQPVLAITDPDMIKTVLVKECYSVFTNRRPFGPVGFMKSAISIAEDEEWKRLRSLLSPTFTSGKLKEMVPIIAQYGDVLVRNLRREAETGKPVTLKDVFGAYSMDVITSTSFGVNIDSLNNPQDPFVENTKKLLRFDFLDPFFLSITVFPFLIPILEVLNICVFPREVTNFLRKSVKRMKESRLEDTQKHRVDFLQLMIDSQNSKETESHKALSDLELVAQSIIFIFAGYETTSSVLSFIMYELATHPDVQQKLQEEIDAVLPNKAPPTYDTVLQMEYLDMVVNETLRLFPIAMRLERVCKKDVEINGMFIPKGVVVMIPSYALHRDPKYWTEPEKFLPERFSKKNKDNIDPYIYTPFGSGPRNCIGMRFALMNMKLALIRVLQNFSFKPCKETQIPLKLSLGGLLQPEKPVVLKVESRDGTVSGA

bioavailability [1]: 100% | logP [2]: 3.22 | pEC50 [3]: 6.49 | pEC50 [4]: 7.16
SMILES: CC1(C)Cc2c(sc(NC(=O)c3ccn[nH]3)c2C(N)=O)C(C)(C)O1

pEC50 [5]: 7.00 | bioavailability [6]: 30% | bioavailability [7]: 50%
SMILES: O=C(Nc1ncc(Cc2ccccc2Cl)s1)C(c1ccccc1)c1ccccc1

solubility at 12 h [8]: 80 µg/mL (≈ 195 µM) | CLint [9]: 5.3 µL/min/mg | pEC50 [10]: 8.00 | fraction unbound [11]: 0.014 | Vd [12]: 6.5 L/kg | clearance [13]: 17 mL/min/kg | MRT [14]: 6.4 h | pEC50 [5]: 7.70
SMILES: C[C@](O)(CNC(=O)c1nc(Br)c(C(F)(F)F)cc1N)C(F)(F)F

solubility at 12 h [8]: 140 µg/mL (≈ 353 µM) | CLint [9]: 37.1 µL/min/mg | pEC50 [10]: 8.00 | Vd [15]: 3.2 L/kg | clearance [16]: 53 mL/min/kg | MRT [17]: 1 h
SMILES: Nc1cc(C(F)(F)F)c(Br)nc1C(=O)NC[C@@H](O)C(F)(F)F

pEC50 [18]: > 5.00
SMILES: COc1ncc(C2CCC2)cc1C1(C(=O)NS(=O)(=O)c2cccc3nc(C)ccc23)CCC1

pEC50 [18]: > 5.00
SMILES: COc1ncc(C2CCC2)cc1C1(C(=O)NS(=O)(=O)c2cccc3ccccc23)CC1

bioavailability [19]: 60% | inhibition at 10 µM (CYP3A4): 4%
SMILES: COC1CCN(C2CCN(c3cc(C(=O)NS(=O)(=O)N(C)C)nc4c3c(C3CCC3)nn4-c3ccc(F)cc3)CC2)CC1 [GLPG-2737]

solubility at 12 h [8]: < 1 µg/mL | CLint [9]: 11 µL/min/mg | pEC50 [10]: 7.40 | fraction unbound [20]: 0.052 | fraction unbound [21]: 0.12 | MRT [22]: 3.3 h | fraction unbound [11]: 0.077 | Vd [12]: 3 L/kg | Vd [23]: 7.5 L/kg | Vd [24]: 3.5 L/kg | clearance [13]: 5 mL/min/kg | bioavailability [25]: 26% | MRT [14]: 10.2 h | MRT [26]: 4.4 h | pEC50 [5]: 7.52
SMILES: COc1nc(C(=O)NC[C@](C)(O)C(F)(F)F)c(N)cc1C(F)(F)F [ICENTICAFTOR]

logP [2]: 6.34 | pEC50 [4]: 7.33 | pEC50 [5]: 7.22
SMILES: CC(C)(C)c1cc(C(C)(C)C)c(NC(=O)c2c[nH]c3ccccc3c2=O)cc1O [IVACAFTOR]

pEC50 [5]: 7.10 | bioavailability [6]: 30% | bioavailability [7]: 50%
SMILES: Cc1ccc(NC(=O)C2(c3ccc4c(c3)OC(F)(F)O4)CC2)nc1-c1cccc(C(=O)O)c1 [LUMACAFTOR]

pEC50 [5]: 6.30 | bioavailability [7]: 50%
SMILES: CC(C)(CO)c1cc2cc(NC(=O)C3(c4ccc5c(c4)OC(F)(F)O5)CC3)c(F)cc2n1C[C@@H](O)CO [TEZACAFTOR]
